The values that follow are results of earlier work, collected in patent US20020192255A1, “Liquid emanator device to deliver self-suspending insecticide droplets” (priority 2001, published 2002).

The conditions of this series: thermal decomposition temperature.

Regarding `CC1(C)[C@H](C=C(Cl)Cl)[C@H]1C(=O)OCc1c(F)c(F)cc(F)c1F` [transfluthrin], the “decomposition of the chemical occurs above” value is “above 392 ° F”.

On to `C#CCC1=C(C)C(OC(=O)C2C(C=C(C)C)C2(C)C)CC1=O` (mixture of isomers) [ETOC-TG, (+)-2-methyl4-oxo-3-(2-propynyl)-2-cyclopentenyl (+)-cis/trans-chrysanthemate], for which the “decomposition of the chemical occurs above” value is given as “above 608 ° F”.
